In patent US11248016B2, “Glycolipids and pharmaceutical compositions thereof for use in therapy” (THE UNIVERSITY OF NOTTINGHAM, priority 2014, dated 2022):

Assays:
NLGN1 5′UTR = test: NLGN translation reporter assay, neuroligin 1; assay type: cell-based, human; details: FIG. 5: 1 μM Hippuristanol, 1.3 μM compound; FIG. 10: compound 46
Experimental: The mechanism of action and level of activity of Formula II are consistent with and comparative to a proven translational inhibitor extracted from a rare coral species (Hippuristanol—a proven inhibitor of eIf4A). In this experiment 1 μM of Hippuristanol and 1.3 μM of Formula I was used
FIG. 10—Compound 46, NLGN Translation reporter assay.
Direct evidence is provided that inhibiting eIF4A represents a new route to treating ASD based on the data presented by Gkogkas et al. Nature 2013, 493:371-7.
Treatment with the compound of Formula II (and compound 46) (FIG. 5 and FIG. 10) selectively decrease the firefly luciferase signal from a reporter construct containing the NLGN1 5′UTR upstream of a firefly luciferase gene. The translation of luciferase reporters downstream of the NLGN1 5′UTR has been proven to be dependent on the activity of the translation initiation complex eIF4F (Gkogkas et al Nature 2013, 493:371-7)—a complex containing the helicase eIF4A. Equivalent treatment had little effect on the signal generated from either a co-transfected renilla luciferase reporter control or cells transfected with an equivalent construct containing the NLGN2 5′UTR upstream of a firefly luciferase gene (FIG. 5 and FIG. 10).
(§1) Experiments conducted using Firefly luciferase reporter plasmids containing the 5′ untranslated regions (UTRs) of the genes amyloid precursor protein (APP), thioredoxin (TXN) were conducted with reagents and materials described by Bottley et al, 2010. Experiments conducted using Firefly luciferase reporter plasmids containing the 5′ UTRs of the genes EGFR, BACE1 and Actin were conducted with reagents and materials described by Webb, 2012 (http://etheses.nottingham.ac.uk/2724/). […]
(§2) Cells were transfected using FuGene 6 (Roche) following the manufacturer's instructions. The activities of firefly and renilla luciferase in lysates prepared from transfected cells were measured using a commercially available Luciferase reporter assay system (Promega) and light emission was measured over a 10 sec interval using a TECAN luminometer. […]

[1] = system: firefly luciferase translation reporter; test: Firefly luciferase translation reporter assay; assay type: cell-based, human
From the text: Graphs represent 4 biological repetitions per treatment—2 independent treatments of a compound of Formula II.
Graphs represent 4 biological repetitions per treatment. […] No difference is observed between Hippuristanol and Hippuristanol plus a compound of Formula II.
The degree of translation inhibition is shown to be equivalent to that of a known inhibitor of translation, hippuristanol (FIGS. 3b and 5). Comparative structured 5′UTR firefly luciferase reporter experiments conducted using either hippuristanol or a compound of Formula II show the inhibition of reporter levels is equivalent.
Cells were transfected using FuGene 6 (Roche) following the manufacturer's instructions. The activities of firefly and renilla luciferase in lysates prepared from transfected cells were measured using a commercially available Luciferase reporter assay system (Promega) and light emission was measured over a 10 sec interval using a TECAN luminometer. For each experiment described, data was obtained from a minimum of at least 3 biological repetitions per treatment.

[2] = system: CrPV IRES-dependent translation; test: CrPV assay, IRES-dependent translation (Renilla luciferase); assay type: cell-based; details: 3 hours treatment
From the text: (§3) FIG. 12—CrPV assay—Natural molecule targets eIF4A.
(§4) By using a well characterised luciferase based reporter assay it was further determined that this class of molecule functions as a protein synthesis inhibitor via targeting the helicase eIF4A.

[3] = system: Cap-dependent (eIF4A dependant) translation; test: CrPV assay, cap-dependent translation (firefly luciferase); assay type: cell-based; details: 20 μM, 3 hours treatment, FIG. 12
From the text: as §3, §4

thioredoxin (TXN) 5′UTR = test: 5′UTR firefly luciferase reporter assay, TXN; assay type: cell-based, human; details: Neuroblastoma cells; FIG. 3d
Experimental: (§5) The 5′UTRs of genes which negatively associate with the progression of Alzheimer's disease—amyloid precursor protein (APP) and beta secretases (BACE) are all inhibited by treatment with a compound of Formula II, whereas the equivalent reporter levels of housekeeping genes actin and thioredoxin (TXN) are not inhibited. […] Neuroblastoma cells were transfected 24 hours prior to treatment with a compound of Formula II. After treatment, cells were prepared as described in the materials and methods. Each experiment represents between 6 and 8 biological repetitions.
as §1, §2

[4] = system: Neuroblastoma cells (SH-SY5Y); test: Polysome profiling (sucrose density); assay type: cell-based, human
Experimental: Established techniques such as polysome profiling were used to show a reduction in the number of polyribosomes in neuroblastoma cells after treatment with a compound of Formula II. Polysome peaks from left to right show increasing number of ribosomes associated with mRNA. This peaks at 3 ribosomes after treatment with a compound of Formula II showing rapid and reproducible perturbation of translation. Cells were treated for 20 minutes with a compound of Formula II then harvested and prepared as described in materials and methods. The supernatants were loaded onto 10-50% sucrose gradients and spun for 2 hrs at 38,000 RPM. Gradients were visualised using a UV detector.
The number of ribosomes is indicative of the translation of an mRNA and synthesis of the protein encoded by the mRNA, and treatment with the compound of Formula II decreases the number of ribosomes per message thereby reducing global protein synthesis.
Polysome profiles were obtained using sucrose density centrifugation. Briefly one 15 cm plate of cultured Neuroblastoma cells (SH-SY5Y) were grown per treatment to a confluency of 70%. Cells were then treated with either active or equivalent DMSO vehicle control for 20 min. […] Gradients were fractionated and polysome profiles determined through a continuous monitoring at absorbance 260 nm (described previously Johannes et al. 1999).

[5] = system: amyloid precursor protein APP 5′UTR luciferase reporter; test: 5′UTR firefly luciferase reporter assay, APP; assay type: cell-based, human
Experimental: SH-SY5Y cells were simultaneously co-transfected with APP-5′UTR firefly luciferase construct and a Renilla control vector. Luciferase levels were assayed using a Glomax Luminometer and Stop-n-Glo luciferase reagents (standard procedure throughout). The data presented represents 8 biological repetitions and use as the active a semi refined compound of Formula II. Levels of compound were estimated based on amounts of purified compound obtained from fresh tomato tissue.
as §5, with “repetitions. […]” for “repetitions.”
as §2

With `CC/C=C\C/C=C\C/C=C\CCCCCCCC(=O)OC[C@H](COC1OC(CO)C(O)C(O)C1O)OC(=O)CCCCCCC/C=C\C/C=C\C/C=C\CC` (stereo partly drawn) [Formula II, 1,2-dioctadecatienyl-3-O-β-D-galactosyl-sn-glycerol] the “translation of NLGN1 5′UTR firefly luciferase reporter relative to neuroligin 2” value (NLGN1 5′UTR) was “selectively reduces the translation”, the “difference between Hippuristanol and Hippuristanol plus Formula II” value ([1]; Hippuristanol 1 μM, 4 hrs, FIG. 3c) was “No difference” and the “inhibition of translation reporter” value ([1]; Hippuristanol (1 μM) plus Formula II, 4 hrs, FIG. 3c) was “significant inhibition”. The “inhibition of translation reporter activity” value ([1]; neuroblastoma cells, treated 4 hrs, compound alone, FIG. 3b) was “equivalent to treatment with 1 μM Hippuristanol”, the “CrPV IRES-dependent translation (Renilla luciferase signal)” value [2] was “but not CrPV IRES-dependent translation (Renilla luciferase signal), was inhibited” and the “cap dependant translation (firefly luciferase signal)” value [3] was “selectively reduces the translation of the firefly luciferase gene”. The “cap dependant translation (firefly luciferase signal)” value ([3]; listed as Synthetic version of the natural molecule) was “inhibited”, the “firefly luciferase reporter levels, TXN 5′UTR” value (thioredoxin (TXN) 5′UTR) was “not inhibited” and the “polysome peak, number of ribosomes associated with mRNA” value ([4]; after treatment, 20 minutes) was 3 ribosomes. The amount of polyribosomes ([4]; cells treated for 20 minutes, 10-50% sucrose gradients) was “reduction in the amount of polyribosomes”, the “firefly luciferase reporter activity, APP 5′UTR” value ([5]; Neuroblastoma cells transfected 24 hours prior, FIG. 3d) was “inhibited” and the “APP 5′UTR luciferase reporter relative to Renilla luciferase reporter” value ([5]; SH-SY5Y cells, semi refined compound, FIG. 3a) was “selective inhibition”.
